Earlier results in patent publication US9326976B2, “Carbamate derivatives” (CHIESI FARMACEUTICI S.P.A., priority 2014, dated 2016).

Tested on: COPD patients
[1] = patients with severe disease, frequent exacerbations and mucus hypersecretion

O=C(Nc1c(Cl)cncc1Cl)c1ccc(OC(F)F)c(OCC2CC2)c1 [roflumilast]
reduction of the numbers of neutrophils in sputum (COPD patients, oral, given over 4 weeks): 36% | improvement of FEV 1 [1]: approximately 50 mL | reduction of exacerbation [1]: about 15%
